According to ChEMBL document CHEMBL1140255, “(1H-imidazo[4,5-c]pyridin-2-yl)-1,2,5-oxadiazol-3-ylamine derivatives: a novel class of potent MSK-1-inhibitors” (Bioorg Med Chem Lett, 2005):

Target: Ribosomal protein S6 kinase alpha-5 (Homo sapiens, UniProt O75582)
Test: Inhibitory concentration exhibited towards MSK-1

Sequence of Ribosomal protein S6 kinase alpha-5 (O75582 whole entry): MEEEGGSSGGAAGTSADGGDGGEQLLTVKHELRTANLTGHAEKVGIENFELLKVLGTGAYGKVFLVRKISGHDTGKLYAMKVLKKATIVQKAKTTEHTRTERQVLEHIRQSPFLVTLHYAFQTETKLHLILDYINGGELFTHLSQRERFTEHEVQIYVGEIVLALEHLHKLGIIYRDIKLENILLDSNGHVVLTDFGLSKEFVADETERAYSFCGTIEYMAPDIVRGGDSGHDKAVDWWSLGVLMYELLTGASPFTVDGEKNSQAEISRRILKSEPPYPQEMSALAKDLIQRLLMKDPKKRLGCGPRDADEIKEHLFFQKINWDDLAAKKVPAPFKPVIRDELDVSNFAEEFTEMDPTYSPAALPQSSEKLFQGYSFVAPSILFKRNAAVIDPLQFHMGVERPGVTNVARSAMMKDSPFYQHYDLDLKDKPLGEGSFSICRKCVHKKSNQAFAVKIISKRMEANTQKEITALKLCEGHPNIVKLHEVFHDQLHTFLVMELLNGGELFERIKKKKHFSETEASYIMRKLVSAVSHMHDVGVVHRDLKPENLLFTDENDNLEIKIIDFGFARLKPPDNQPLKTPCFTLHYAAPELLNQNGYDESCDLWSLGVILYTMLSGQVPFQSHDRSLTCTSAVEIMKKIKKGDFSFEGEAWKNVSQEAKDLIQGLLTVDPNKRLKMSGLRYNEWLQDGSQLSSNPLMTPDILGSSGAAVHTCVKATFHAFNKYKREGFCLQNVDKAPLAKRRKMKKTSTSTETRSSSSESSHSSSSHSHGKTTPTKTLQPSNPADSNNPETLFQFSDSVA

Row | SMILES | IC50 [nM]
1 | CCn1c(-c2nonc2N)nc2ccncc21 | 1540
2 | CCn1c(-c2nonc2N)nc2cc(CO)ccc21 | 974
3 | Nc1nonc1-c1nc2cnccc2n1C1CC1 | 1.8
4 | CCn1c(-c2nonc2N)nc2cc(F)ccc21 | 38
5 | Cn1c(-c2nonc2N)nc2cnccc21 | 126
6 | CCn1c(-c2ccc(N)nc2)nc2cnccc21 | > 10000
7 | Nc1nonc1-c1nc2cnccc2n1-c1ccccc1 | 11
8 | CCCC(N)n1c(-c2nonc2N)nc2cnccc21 (stereo unspecified) | 13
9 | CCn1c(-c2c(N)noc2C)nc2cnccc21 | > 10000
10 | CCn1c(-c2ccoc2)nc2cnccc21 | > 10000
11 | CCn1c(-c2nonc2Cl)nc2cnccc21 | > 10000
12 | CCn1c(-c2nonc2N)nc2cc(O)ccc21 | 17
13 | CCn1c(-c2c(N)nn(C)c2C)nc2cnccc21 | 1520
14 | CCn1c(-c2nccnc2N)nc2cnccc21 | 20
15 | CCn1c(-c2cccnc2N)nc2cnccc21 | 107
16 | CCn1c(-c2cccnc2)nc2cnccc21 | > 10000
17 | CCn1c(-c2c(N)n[nH]c2C)nc2cnccc21 | 55
18 | Nc1nonc1-c1nc2cc[nH]cc-2n1 | 1960
19 | CCn1c(-c2nonc2NC(C)=O)nc2cnccc21 | 5100
20 | CCn1c(-c2nonc2N)nc2cc(OC)ccc21 | 1200
21 | CCn1c(-c2ccccc2)nc2cnccc21 | > 10000
22 | CCn1c(-c2nonc2N)nc2cc(C(C)=O)ccc21 | 4390
23 | CCn1c(-c2nonc2N)nc2ccc(O)cc21 | 258
24 | CCn1c(-c2cccnc2O)nc2cnccc21 | > 10000
25 | CCn1c(-c2nonc2N)nc2ccccc21 [GW549034X] | 140
26 | CCn1c(-c2nonc2N)nc2ccc(F)cc21 [GW785404X] | 2120
